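Growth conditions: 96-well plates. Treatment: test compound, 48 hours, 5 concentrations. Analysis: linear interpolation between bracketing concentrations; unreached endpoints set to highest concentration. At the GI50, growth is halved. Definition used: TGI = concentration required for complete inhibition of growth.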

One assay deals with SK-OV-3 ovarian. The assay is described as follows: NCI anticancer screen, dose series, 48 h.
As for `CNc1ncccc1Nc1cc(=O)n2c3cccnc3n(C)c2c1`, the TGI was over 100 µM.
On the same count and under the same terms, then `CC1(C)C2CCC1(C)C(N/C(Sc1ccccc1)=C(/C(Cl)=C(Cl)Cl)[N+](=O)[O-])C2` (stereo not drawn), with 34.7 µM; and `COC(=O)[C@@H]1C[C@H]2OC(=O)CC[C@]2(C)O[C@H]1[C@H]1O[C@@](C)(O)CCC[C@H]1C`, with over 50 µM.
On the same count and under the same terms, then `O=S(Cc1ccccc1)c1nc2ccccc2nc1-c1cccs1` (stereo not drawn), with 85.4 µM; and `CN(/N=C/c1ccc(C(=O)O)cc1)C1=NCCCCN1`, with over 100 µM; and `C=C(C)C1CCC(C(=O)O)CC1` (stereo not drawn), with over 100 µM.
The same measure, in the same setting: then `Cc1c(N2C(=O)C(Cl)C2/C=C/c2ccccc2)c(=O)n(-c2ccccc2)n1C` (stereo not drawn), with 76.6 µM.
`O=c1[nH]c2cc(C(F)(F)F)ccc2nc1C(F)(F)F` registered a TGI of over 100 µM.
As to `C=CC[C@]1(/C=N/O)CN(S(=O)(=O)CC[Si](C)(C)C)C[C@H]2CC=CC[C@H]21`, the TGI worked out at 64.5 µM.
For `CCOC(=O)Nc1cc2c(c(N)n1)N=C(c1ccc(OC)cc1)CN2`, the GI50 is 0.0475 µM and the TGI is 18.7 µM.
`CCN1C[C@]2(C)CC[C@H](O)C34C1C(C[C@@H]32)[C@@]1(O)CC[C@H]2C[C@@H]4[C@@H]1[C@H]2O` had a TGI of over 100 µM.
Still for that read-out and setting: then `CCC(CC)NC1=C(NC(C)=O)C(=O)c2ccccc2C1=O`, with over 50 µM.
The same measure, in the same setting: then `COc1ccc(-c2c(C(C)=O)c(-c3ccccc3)n(C3OC(CO)C(O)C(O)C3O)c(=S)c2C#N)cc1` (stereo not drawn), with over 100 µM; and `CCCCCCCC(CC(=O)NC(CO)C(=O)NC(CO)CC(C)C)OC(=O)CC(CCCCCCC)OC(=O)CC(CCCCCCC)OC1OC(C)C(O)C(OC2OC(C)C(OC(C)=O)C(O)C2O)C1O` (stereo not drawn), with 29.8 µM.
Same read-out and setting: then `O=C1C2=Cc3ccccc3OC2(O)Oc2cc3ccccc3cc21` (stereo not drawn), with over 100 µM; and `CC1(c2cccc(C3CC4(CCC3=O)OCCCCO4)c2)OCCO1` (stereo not drawn), with over 100 µM.

Another assay concerns UO-31 renal. Kind of assay: NCI anticancer screen, dose series, 48 h.
In turn, `CC1(C)OCN(c2ccc(N3CCOCC3)cc2)Cn2c1nc1ccccc12` had a TGI of over 100 µM.
The same measure, in the same setting: then `CC1C2CC(C(S(=O)(=O)O)C2=O)C1(C)C` (stereo not drawn), with over 100 µM; and `CN(C)/C=C/C(=CC=[N+](C)C)/C=C/N(C)C`, with over 100 µM.
Same read-out and setting: then `CNC1(c2cc3ccccc3s2)CCCCC1`, with over 100 µM; and `N#C[S-].[La+3].c1cnc2c(c1)ccc1cccnc12.c1cnc2c(c1)ccc1cccnc12.c1cnc2c(c1)ccc1cccnc12`, with 10.5 µM; and `CNc1ncccc1Nc1cc(=O)n2c3cccnc3n(C)c2c1`, with over 100 µM.
On the same count and under the same terms, then `CC1(C)C2CCC1(C)C(N/C(Sc1ccccc1)=C(/C(Cl)=C(Cl)Cl)[N+](=O)[O-])C2` (stereo not drawn), with 26 µM; and `COC(=O)[C@@H]1C[C@H]2OC(=O)CC[C@]2(C)O[C@H]1[C@H]1O[C@@](C)(O)CCC[C@H]1C`, with over 50 µM; and `O=S(Cc1ccccc1)c1nc2ccccc2nc1-c1cccs1` (stereo not drawn), with 41 µM.
Molecule `CN(/N=C/c1ccc(C(=O)O)cc1)C1=NCCCCN1` returned a TGI of over 100 µM.
The same measure, in the same setting: then `C=C(C)C1CCC(C(=O)O)CC1` (stereo not drawn), with over 100 µM; and `Cc1c(N2C(=O)C(Cl)C2/C=C/c2ccccc2)c(=O)n(-c2ccccc2)n1C` (stereo not drawn), with 92.4 µM.
The molecule `O=c1[nH]c2cc(C(F)(F)F)ccc2nc1C(F)(F)F` had a TGI of over 100 µM.
Same read-out and setting: then `C=CC[C@]1(/C=N/O)CN(S(=O)(=O)CC[Si](C)(C)C)C[C@H]2CC=CC[C@H]21`, with over 100 µM; and `CCN1C[C@]2(C)CC[C@H](O)C34C1C(C[C@@H]32)[C@@]1(O)CC[C@H]2C[C@@H]4[C@@H]1[C@H]2O`, with over 100 µM.
Still for that read-out and setting: then `CCC(CC)NC1=C(NC(C)=O)C(=O)c2ccccc2C1=O`, with over 50 µM; and `COc1ccc(-c2c(C(C)=O)c(-c3ccccc3)n(C3OC(CO)C(O)C(O)C3O)c(=S)c2C#N)cc1` (stereo not drawn), with over 100 µM.
The same measure, in the same setting: then `CCCCCCCC(CC(=O)NC(CO)C(=O)NC(CO)CC(C)C)OC(=O)CC(CCCCCCC)OC(=O)CC(CCCCCCC)OC1OC(C)C(O)C(OC2OC(C)C(OC(C)=O)C(O)C2O)C1O` (stereo not drawn), with 28.8 µM; and `CC1(c2cccc(C3CC4(CCC3=O)OCCCCO4)c2)OCCO1` (stereo not drawn), with over 100 µM.

For another assay, the system named is HCT-15 colon. Kind of assay: NCI anticancer screen, dose series, 48 h.
With `CC1(C)OCN(c2ccc(N3CCOCC3)cc2)Cn2c1nc1ccccc12`, the TGI was over 100 µM.
On the same count and under the same terms, then `CNC1(c2cc3ccccc3s2)CCCCC1`, with over 100 µM; and `CNc1ncccc1Nc1cc(=O)n2c3cccnc3n(C)c2c1`, with over 100 µM.
Take `CC1(C)C2CCC1(C)C(N/C(Sc1ccccc1)=C(/C(Cl)=C(Cl)Cl)[N+](=O)[O-])C2` (stereo not drawn): the TGI was determined as 24.1 µM.
On the same count and under the same terms, then `COC(=O)[C@@H]1C[C@H]2OC(=O)CC[C@]2(C)O[C@H]1[C@H]1O[C@@](C)(O)CCC[C@H]1C`, with over 50 µM; and `O=S(Cc1ccccc1)c1nc2ccccc2nc1-c1cccs1` (stereo not drawn), with 25.5 µM; and `CN(/N=C/c1ccc(C(=O)O)cc1)C1=NCCCCN1`, with over 100 µM.
Still for that read-out and setting: then `C=C(C)C1CCC(C(=O)O)CC1` (stereo not drawn), with over 100 µM.
Same read-out and setting: then `O=c1[nH]c2cc(C(F)(F)F)ccc2nc1C(F)(F)F`, with over 100 µM; and `C=CC[C@]1(/C=N/O)CN(S(=O)(=O)CC[Si](C)(C)C)C[C@H]2CC=CC[C@H]21`, with over 100 µM.
Take `CCOC(=O)Nc1cc2c(c(N)n1)N=C(c1ccc(OC)cc1)CN2`: the TGI is over 100 µM.
The same measure, in the same setting: then `CCN1C[C@]2(C)CC[C@H](O)C34C1C(C[C@@H]32)[C@@]1(O)CC[C@H]2C[C@@H]4[C@@H]1[C@H]2O`, with over 100 µM.
Same read-out and setting: then `CCC(CC)NC1=C(NC(C)=O)C(=O)c2ccccc2C1=O`, with over 50 µM.
On the same count and under the same terms, then `COc1ccc(-c2c(C(C)=O)c(-c3ccccc3)n(C3OC(CO)C(O)C(O)C3O)c(=S)c2C#N)cc1` (stereo not drawn), with over 100 µM; and `O=C1C2=Cc3ccccc3OC2(O)Oc2cc3ccccc3cc21` (stereo not drawn), with over 100 µM.
For the molecule `CC1(c2cccc(C3CC4(CCC3=O)OCCCCO4)c2)OCCO1` (stereo not drawn), the TGI is over 100 µM.

The next assay deals with SF-539 CNS. Kind of assay: NCI anticancer screen, dose series, 48 h.
For `CC1(C)OCN(c2ccc(N3CCOCC3)cc2)Cn2c1nc1ccccc12`, the TGI is over 100 µM.
`CC1C2CC(C(S(=O)(=O)O)C2=O)C1(C)C` (stereo not drawn) returned a TGI of over 100 µM.
Same read-out and setting: then `CN(C)/C=C/C(=CC=[N+](C)C)/C=C/N(C)C`, with over 100 µM; and `CNC1(c2cc3ccccc3s2)CCCCC1`, with 46.3 µM; and `N#C[S-].[La+3].c1cnc2c(c1)ccc1cccnc12.c1cnc2c(c1)ccc1cccnc12.c1cnc2c(c1)ccc1cccnc12`, with 14.1 µM.
Same read-out and setting: then `CNc1ncccc1Nc1cc(=O)n2c3cccnc3n(C)c2c1`, with over 100 µM.
Still for that read-out and setting: then `CC1(C)C2CCC1(C)C(N/C(Sc1ccccc1)=C(/C(Cl)=C(Cl)Cl)[N+](=O)[O-])C2` (stereo not drawn), with 26.2 µM; and `COC(=O)[C@@H]1C[C@H]2OC(=O)CC[C@]2(C)O[C@H]1[C@H]1O[C@@](C)(O)CCC[C@H]1C`, with over 50 µM.
Regarding `O=S(Cc1ccccc1)c1nc2ccccc2nc1-c1cccs1` (stereo not drawn), the TGI amounted to 30 µM.
Still for that read-out and setting: then `CN(/N=C/c1ccc(C(=O)O)cc1)C1=NCCCCN1`, with over 100 µM; and `C=C(C)C1CCC(C(=O)O)CC1` (stereo not drawn), with over 100 µM; and `Cc1c(N2C(=O)C(Cl)C2/C=C/c2ccccc2)c(=O)n(-c2ccccc2)n1C` (stereo not drawn), with 62.3 µM.
Still for that read-out and setting: then `O=c1[nH]c2cc(C(F)(F)F)ccc2nc1C(F)(F)F`, with 94.6 µM.
For the molecule `C=CC[C@]1(/C=N/O)CN(S(=O)(=O)CC[Si](C)(C)C)C[C@H]2CC=CC[C@H]21`, the TGI was 32.8 µM.
Take `CCOC(=O)Nc1cc2c(c(N)n1)N=C(c1ccc(OC)cc1)CN2`: the GI50 was under 0.0001 µM.
Consider `CCN1C[C@]2(C)CC[C@H](O)C34C1C(C[C@@H]32)[C@@]1(O)CC[C@H]2C[C@@H]4[C@@H]1[C@H]2O`, for which the TGI was over 100 µM.

(Values after PubChem BioAssay (NCI).)
